Source: paper PMC8343220, “The selectivity of α‐adrenoceptor agonists for the human α1A, α1B, and α1D‐adrenoceptors” (Pharmacology Research & Perspectives, 2021)
Where two headings read alike, the source gives them in different places.

How the values were obtained:
human α1B‐adrenoceptor [1] = biological target: T1, human α1B‐adrenoceptor (Homo sapiens, UniProt P35368); assay: ^3H‐prazosin whole‐cell radioligand binding, CHO‐α1B cells
T1 construct: expressed in transfected cells; host or cells: CHO-K1
T1 sequence (P35368 1-520): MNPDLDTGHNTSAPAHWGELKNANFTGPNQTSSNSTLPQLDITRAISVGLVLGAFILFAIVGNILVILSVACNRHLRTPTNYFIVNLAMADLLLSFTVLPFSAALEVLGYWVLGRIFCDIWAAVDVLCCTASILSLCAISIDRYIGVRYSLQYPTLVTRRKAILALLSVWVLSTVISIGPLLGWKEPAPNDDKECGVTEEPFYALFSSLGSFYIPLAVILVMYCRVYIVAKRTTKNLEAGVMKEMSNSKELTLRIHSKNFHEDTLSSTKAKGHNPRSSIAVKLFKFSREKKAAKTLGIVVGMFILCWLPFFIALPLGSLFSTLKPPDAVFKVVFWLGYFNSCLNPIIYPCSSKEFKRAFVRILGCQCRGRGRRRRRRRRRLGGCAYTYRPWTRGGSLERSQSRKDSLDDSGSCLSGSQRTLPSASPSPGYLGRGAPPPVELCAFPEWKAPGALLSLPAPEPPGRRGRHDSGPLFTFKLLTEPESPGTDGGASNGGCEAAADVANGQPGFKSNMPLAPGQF

[2] = biological target: T2, human α1D‐adrenoceptor (full length) (Homo sapiens, UniProt P25100); assay: Intracellular free calcium mobilization, CHO‐α1D cells; type: cell-based
T2 construct: human α1D‐adrenoceptor (full length) were used; expressed in transfected cells; host or cells: CHO-K1
T2 sequence (P25100 1-572): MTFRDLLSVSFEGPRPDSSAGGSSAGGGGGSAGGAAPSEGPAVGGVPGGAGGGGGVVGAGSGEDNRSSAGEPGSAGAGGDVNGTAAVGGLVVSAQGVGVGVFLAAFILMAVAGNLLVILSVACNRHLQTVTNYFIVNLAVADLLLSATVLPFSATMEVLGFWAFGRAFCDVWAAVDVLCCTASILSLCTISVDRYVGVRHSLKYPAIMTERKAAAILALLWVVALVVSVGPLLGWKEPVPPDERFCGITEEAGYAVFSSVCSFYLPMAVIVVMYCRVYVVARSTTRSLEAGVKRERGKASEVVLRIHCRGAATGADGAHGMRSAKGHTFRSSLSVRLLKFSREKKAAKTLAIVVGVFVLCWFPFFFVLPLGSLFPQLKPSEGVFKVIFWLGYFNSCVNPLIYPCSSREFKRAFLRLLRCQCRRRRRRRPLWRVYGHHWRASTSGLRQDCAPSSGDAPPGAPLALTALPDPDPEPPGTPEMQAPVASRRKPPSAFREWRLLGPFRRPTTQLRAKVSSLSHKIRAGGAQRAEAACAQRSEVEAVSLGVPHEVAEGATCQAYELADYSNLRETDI

human α1B‐adrenoceptor [3] = biological target: T1, human α1B‐adrenoceptor; assay: ERK1/2‐phosphorylation (Surefire Alphascreen), CHO‐α1B cells; type: cell-based; settings: for EC50: read-out: ERK1/2‐phosphorylation Log EC50 (converted)
human α1A‐adrenoceptor [4] = biological target: T3, human α1A‐adrenoceptor (Homo sapiens, UniProt P35348); assay: Intracellular free calcium mobilization, CHO‐α1A cells; type: cell-based; settings: for EC50: read-out: Intracellular calcium release Log EC50 (converted)
T3 construct: expressed in transfected cells; host or cells: CHO-K1
T3 sequence (P35348 1-466): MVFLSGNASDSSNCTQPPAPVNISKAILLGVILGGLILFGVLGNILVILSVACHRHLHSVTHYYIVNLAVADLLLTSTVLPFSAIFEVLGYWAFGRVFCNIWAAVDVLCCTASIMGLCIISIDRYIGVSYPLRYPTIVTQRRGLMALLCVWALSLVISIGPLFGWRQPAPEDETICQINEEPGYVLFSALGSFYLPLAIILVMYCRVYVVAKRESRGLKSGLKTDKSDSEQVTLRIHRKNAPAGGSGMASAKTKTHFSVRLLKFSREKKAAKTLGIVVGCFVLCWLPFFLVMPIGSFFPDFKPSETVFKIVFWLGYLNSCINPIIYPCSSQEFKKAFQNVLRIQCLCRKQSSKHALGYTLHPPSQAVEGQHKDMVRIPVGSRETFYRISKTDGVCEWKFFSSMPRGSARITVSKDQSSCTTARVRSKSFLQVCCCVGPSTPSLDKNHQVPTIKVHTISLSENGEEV

[5] = biological target: T2, human α1D‐adrenoceptor (full length); assay: ^3H‐prazosin whole‐cell radioligand binding, CHO‐α1D cells
[6] = biological target: T2, human α1D‐adrenoceptor (full length); assay: ^3H‐cAMP accumulation, CHO‐α1D cells; type: cell-based; settings: cAMP accumulation without forskolin
human α1B‐adrenoceptor [7] = biological target: T1, human α1B‐adrenoceptor; assay: Intracellular free calcium mobilization, CHO‐α1B cells; type: cell-based; settings: for EC50: read-out: Intracellular calcium release Log EC50 (converted)
[8] = tested on: parental CHO cell line without any transfected receptors; assay: ERK1/2‐phosphorylation, parent CHO cells without transfected receptors; type: cell-based, Chinese hamster; settings: Cricetulus griseus, CHO; read-out: ERK1/2-phosphorylation % PDBu at 100μM
human α1A‐adrenoceptor [9] = biological target: T3, human α1A‐adrenoceptor; assay: ^3H‐prazosin whole‐cell radioligand binding, CHO‐α1A cells
[10] = biological target: T2, human α1D‐adrenoceptor (full length); assay: ERK1/2‐phosphorylation (Surefire Alphascreen), CHO‐α1D cells; type: cell-based; settings: for EC50: read-out: ERK1/2‐phosphorylation Log EC50 (converted)
[11] = biological target: T2, human α1D‐adrenoceptor (full length); assay: ^3H‐cAMP accumulation in the presence of 10 μM forskolin, CHO‐α1D cells; type: cell-based; settings: CHO‐α1D cells
human α1A‐adrenoceptor [12] = biological target: T3, human α1A‐adrenoceptor; assay: ERK1/2‐phosphorylation (Surefire Alphascreen), CHO‐α1A cells; type: cell-based; settings: for EC50: read-out: ERK1/2‐phosphorylation Log EC50 (converted)
[13] = tested on: parental CHO cell line without any transfected receptors; assay: Intracellular calcium mobilization, parent CHO cells without transfected receptors; type: cell-based, Chinese hamster; settings: Cricetulus griseus; CHO cells without transfected receptors; response at maximum concentration used (c2), as % of ionomycin (10μM) response; mean ± s.e.m.; read-out: Intracellular calcium release % ionomycin
human α1B‐adrenoceptor [14] = biological target: T1, human α1B‐adrenoceptor; assay: ^3H‐cAMP accumulation, CHO‐α1B cells; type: cell-based; settings: CHO‐α1B cells
human α1B‐adrenoceptor [15] = biological target: T1, human α1B‐adrenoceptor; assay: ^3H‐cAMP accumulation in the presence of 10 μM forskolin, CHO‐α1B cells; type: cell-based; settings: CHO‐α1B cells
human α1A‐adrenoceptor [16] = biological target: T3, human α1A‐adrenoceptor; assay: ^3H‐cAMP accumulation, CHO‐α1A cells; type: cell-based; settings: CHO‐α1A cells
[17] = tested on: parental CHO cell line without any transfected receptors; assay: Forskolin‐stimulated cAMP accumulation, parent CHO cells without transfected receptors; type: cell-based, Chinese hamster; settings: CHO cells without transfected receptors; response at 100μM only, EC50 not obtainable; % of forskolin-stimulated cAMP
human α1A‐adrenoceptor [18] = biological target: T3, human α1A‐adrenoceptor; assay: ^3H‐cAMP accumulation in the presence of 10 μM forskolin, CHO‐α1A cells; type: cell-based; settings: CHO‐α1A cells
[19] = fold increase of the forskolin response

COc1nc(C)nc(Cl)c1N=C1NCCN1 [Moxonidine]
Kd (human α1B‐adrenoceptor [1]; CHO‐α1B cells, given as log KD (negative), mean ± SEM): 339000 nM | Kd (human α1B‐adrenoceptor [1]; Log KD, ^3H‐prazosin binding, CHO‐α1B cells, whole‐cell binding (from Table 1), given as log KD (negative numbers)): 339000 nM | Log efficacy ratio KD /EC50 ([2]; CHO‐α1D cells, intrinsic efficacy ratio, binding KD / calcium EC50): 1.25 | EC50 ([2]; CHO‐α1D cells, log values given negative, read-out: Intracellular calcium release Log EC50 (converted)): 6170 nM | Intracellular calcium release % ionomycin ([2]; CHO‐α1D cells, maximal response as % of 10 µM ionomycin): 16.6 ± 2.9% | EC50 (human α1B‐adrenoceptor [3]; CHO‐α1B cells, for bi‐phasic responses the initial stimulatory part): 912 nM | ERK1/2‐phosphorylation % PDBu (human α1B‐adrenoceptor [3]; CHO‐α1B cells, maximal response as % PDBu response, for bi‐phasic responses the initial stimulatory part): 102.0 ± 6.5% | Log efficacy ratio KD /EC50 (human α1A‐adrenoceptor [4]; CHO‐α1A cells, binding KD and calcium EC50): 1.97 | EC50 (human α1A‐adrenoceptor [4]; CHO‐α1A cells, given as log EC50 (negative)): 309 nM | Intracellular calcium release % ionomycin (human α1A‐adrenoceptor [4]; CHO‐α1A cells, maximal response as % of 10 µM ionomycin): 59.3 ± 4.5% | Kd ([5]; 3H‐prazosin binding Log KD, CHO‐α1D cells, whole‐cell binding (from Table 1), log values given negative): 110000 nM | Kd ([5]; CHO‐α1D cells, given as log KD (negative), mean ± SEM, 'early plateau' = specific binding not fully inhibited): 110000 nM | Affinity selectivity ratio α1B vs α1D ([5]; higher affinity for α1D than α1B): 3.1 fold | cAMP Log EC50 [6]: No response | EC50 (human α1B‐adrenoceptor [7]; CHO‐α1B cells, given as log EC50 (negative numbers)): 324 nM | Log efficacy ratio KD /EC50 (human α1B‐adrenoceptor [7]; CHO‐α1B cells, intrinsic efficacy ratio, KD from binding / EC50 calcium, log): 3.02 | Intracellular calcium release % ionomycin (human α1B‐adrenoceptor [7]; CHO‐α1B cells, maximal response as % of 10 µM ionomycin response): 57.9 ± 2.1% | Emax at 100 µM [8]: 3.1 ± 1.9% | Kd (human α1A‐adrenoceptor [9]; CHO‐α1A cells, given as log KD (negative), mean ± SEM): 28800 nM | Affinity selectivity ratio α1A vs α1B (human α1A‐adrenoceptor [9]; higher affinity for α1A than α1B): 11.7 fold | Affinity selectivity ratio α1A vs α1D (human α1A‐adrenoceptor [9]; higher affinity for α1A than α1D): 3.8 fold | EC50 ([10]; CHO‐α1D cells, log values given negative): 14800 nM | ERK1/2‐phosphorylation % PDBu ([10]; CHO‐α1D cells, maximal response as % of PDBu): 16.4 ± 1.6% | cAMP (in presence of forskolin) Fold increase [11, 19]: No response | cAMP (in presence of forskolin) Log EC50 ([11]; in presence of forskolin, log values given negative): No response | EC50 (human α1A‐adrenoceptor [12]; CHO‐α1A cells, 2–4 min, ^a bi‐phasic: initial stimulatory part, ^b also active in parent CHO cells): 141 nM | ERK1/2‐phosphorylation % PDBu (human α1A‐adrenoceptor [12]; CHO‐α1A cells, % of 10 µM PDBu, ^a bi‐phasic: initial stimulatory part): 78.0 ± 7.2%

Cc1cccc(C(C)c2cnc[nH]2)c1C (centres unmarked) [Medetomidine]
Emax [13]: 11.7 ± 2.4% | Kd (human α1B‐adrenoceptor [1]; Log KD α1B, ^3H‐prazosin whole cell binding): 14500 nM | Kd (human α1B‐adrenoceptor [1]; Log KD, ^3H‐prazosin binding): 14500 nM | cAMP accumulation % forskolin (human α1B‐adrenoceptor [14]; % forskolin maximum response): 4.6 ± 0.9% | EC50 (human α1B‐adrenoceptor [14]; read-out: cAMP accumulation Log EC50 (converted)): 115 nM | cAMP accumulation (in presence of forskolin) Fold increase (human α1B‐adrenoceptor [15]; [19]): 1.52 ± 0.04 fold | EC50 (human α1B‐adrenoceptor [15]; in presence of forskolin, read-out: cAMP accumulation (in presence of forskolin) Log EC50 (converted)): 93.3 nM | Intracellular calcium release % Ionomycin at 100 µM [2]: 11.5 ± 2.3% | EC50 (human α1A‐adrenoceptor [16]; 5 h, read-out: cAMP accumulation Log EC50 (converted)): 646 nM | cAMP accumulation % forskolin (human α1A‐adrenoceptor [16]; % of 10 µM forskolin response): 46.3 ± 5.2% | cAMP accumulation (in presence of forskolin) % forskolin-stim cAMP at 100μM [17]: 88.4 ± 3.2% | ERK1/2‐phosphorylation % PDBu (human α1B‐adrenoceptor [3]): 55.2 ± 5.3% | EC50 (human α1B‐adrenoceptor [3]): 138 nM | Intracellular calcium release % ionomycin (human α1A‐adrenoceptor [4]): 57.2 ± 1.8% | Log efficacy ratio KD /EC50 (human α1A‐adrenoceptor [4]): 2.06 | EC50 (human α1A‐adrenoceptor [4]): 20.4 nM | Affinity selectivity ratio α1A vs α1D [5]: 1.1 fold | Affinity selectivity ratio α1B vs α1D [5]: 6.8 fold | Kd ([5]; 3H‐prazosin binding Log KD): 2140 nM | Kd ([5]; Log KD α1D, ^3H‐prazosin whole cell binding): 2140 nM | EC50 (human α1A‐adrenoceptor [18]; 10 μM forskolin, read-out: cAMP accumulation (in presence of forskolin) Log EC50 (converted)): 126 nM | cAMP accumulation (in presence of forskolin) Fold increase (human α1A‐adrenoceptor [18]; [19]): 2.12 ± 0.09 fold | Intracellular calcium release % ionomycin (human α1B‐adrenoceptor [7]): 43.0 ± 3.4% | Log efficacy ratio KD /EC50 (human α1B‐adrenoceptor [7]): 2.09 | EC50 (human α1B‐adrenoceptor [7]): 117 nM | Emax at 100 µM [8]: 7.9 ± 3.8% | Affinity selectivity ratio α1A vs α1B (human α1A‐adrenoceptor [9]): 6.2 fold | Kd (human α1A‐adrenoceptor [9]; Log KD α1A, ^3H‐prazosin whole cell binding): 2340 nM | ERK1/2‐phosphorylation % PDBu [10]: 22.6 ± 5.1% | EC50 [10]: 7240 nM | ERK1/2‐phosphorylation % PDBu (human α1A‐adrenoceptor [12]): 85.8 ± 3.3% | EC50 (human α1A‐adrenoceptor [12]): 31.6 nM
